In ChEMBL document CHEMBL4368855, “Novel tricyclic glycal-based TRIB1 inducers that reprogram LDL metabolism in hepatic cells” (Medchemcomm, 2018):
In brackets after ≈: the same amount, converted by molar mass.

Legend:
[1] = Stability in mouse liver microsomes assessed as parent compound remaining at 1 uM incubated for 60 mins under shaking condition by UPLC/MS analysis; type: ADME, Microsome; details: read-out: Stability
[2] = Solubility of the compound in 1% DMSO/phosphate buffered saline at pH 7.4 incubated for 18 hrs under shaking condition by UPLC/MS analysis; type: physicochemical
HepG2 [3] = assay: Up regulation of TRIB1 gene expression in human HepG2 cells measured after 6 hrs by qRT-PCR analysis relative to control; type: functional
HepG2 [4] = assay: Down regulation of PCSK9 gene expression in human HepG2 cells measured after 24 hrs by qRT-PCR analysis; type: functional, cell-based; details: HepG2, 24 h
HepG2 [5] = assay: Up regulation of LDLR gene expression in human HepG2 cells measured after 6 hrs by qRT-PCR analysis relative to control; type: functional
HepG2 [6] = assay: Up regulation of TRIB1 gene expression in human HepG2 cells measured after 6 hrs by qRT-PCR analysis; type: functional, cell-based; details: HepG2, 6 h
HepG2 [7] = assay: Up regulation of LDLR gene expression in human HepG2 cells measured after 6 hrs by qRT-PCR analysis; type: functional, cell-based; details: HepG2, 6 h
[8] = AUC (infinity) in C57BL/6 mouse liver at 10 mg/kg, ip administered as single dose by mass spectrometry; type: ADME, organism-based; parameters: dose 10 mg/kg, route intraperitoneal, time infinity; details: in vivo
[9] = Cmax in C57BL/6 mouse plasma at 10 mg/kg, ip administered as single dose by mass spectrometry; type: ADME, organism-based; parameters: dose 10 mg/kg, route intraperitoneal
[10] = Apparent volume of distribution in C57BL/6 mouse liver at 10 mg/kg, ip administered as single dose by mass spectrometry; type: ADME, organism-based; details: in vivo
[11] = Drug uptake in C57BL/6 mouse at 15 to 45 mg/kg, ip administered as single dose measured at 8 to 12 hrs post dose by mass spectrometry; type: ADME, organism-based; details: in vivo
[12] = Half life in C57BL/6 mouse plasma at 10 mg/kg, ip administered as single dose by mass spectrometry; type: ADME, organism-based
[13] = Clearance in C57BL/6 mouse plasma at 10 mg/kg, ip administered as single dose by mass spectrometry; type: ADME, organism-based
[14] = Toxicity in C57BL/6 mouse at 15 to 45 mg/kg, ip administered as single dose measured over 24 hrs; type: organism-based; details: in vivo
[15] = Half life in C57BL/6 mouse liver at 10 mg/kg, ip administered as single dose by mass spectrometry; type: ADME, organism-based
[16] = Tmax in C57BL/6 mouse liver at 10 mg/kg, ip administered as single dose by mass spectrometry; type: ADME, organism-based
[17] = Unbound fraction in C57BL/6 mouse liver at 10 mg/kg, ip administered as single dose by mass spectrometry; type: ADME, organism-based
[18] = Cmax in C57BL/6 mouse liver at 10 mg/kg, ip administered as single dose by mass spectrometry; type: ADME, organism-based; parameters: dose 10 mg/kg, route intraperitoneal
[19] = AUC (infinity) in C57BL/6 mouse plasma at 10 mg/kg, ip administered as single dose by mass spectrometry; type: ADME, organism-based; parameters: dose 10 mg/kg, route intraperitoneal, time infinity; details: in vivo
[20] = Tmax in C57BL/6 mouse plasma at 10 mg/kg, ip administered as single dose by mass spectrometry; type: ADME, organism-based
[21] = Apparent volume of distribution in C57BL/6 mouse plasma at 10 mg/kg, ip administered as single dose by mass spectrometry; type: ADME, organism-based; details: in vivo

| remaining at 1 h, 1 µM [1] | solubility kinetic at 18 h [2] | EC50 (HepG2 [4]) | EC50 (HepG2 [6]) | EC50 (HepG2 [7]) | SMILES | max activation (HepG2 [3]) | max activation (HepG2 [5]) | further results |
| --- | --- | --- | --- | --- | --- | --- | --- | --- |
| 54% | 90 µM (≈ 50.5 µg/mL) | 25 nM | 1100 nM | 2450 nM | CN1C(=O)c2cc(NC(=O)c3ccc(C(F)(F)F)cc3)ccc2OC[C@@H]2O[C@H](CNC(=O)[C@@H]3CCCO3)CC[C@@H]21 | 3.7 | 4.3 |  |
| 28% | 7 µM (≈ 3.95 µg/mL) | 60 nM | 80 nM | 170 nM | CC(C)COC(=O)NC[C@@H]1CC[C@H]2[C@H](COc3ccc(NC(=O)c4ccc(C(F)(F)F)cc4)cc3C(=O)N2C)O1 | 5.8 | 3.7 | AUC [8]: 16803 µg/L/h; Cmax [9]: 2310 ng/mL; Vz [10]: 0.99 L/kg; Drug uptake [11]: Active; half-life [12]: 67.2 min; CL/F [13]: 46.2 mL/min/kg; Activity [14]: Non-Toxic; half-life [15]: 69.6 min; Tmax [16]: 4.8 min; fraction unbound [17]: 0.01; Cmax [18]: 13100 ng/mL; AUC [19]: 3616 µg/L/h; Tmax [20]: 30 min; Vz [21]: 4.48 L/kg |
